target: T1, human MC1R (hMC1R) (Homo sapiens, UniProt Q01726); test: Human MC1R radioligand binding assay (displacement of 125I-labeled NDP-MSH, Perkin Elmer hMC1R membranes); conditions: displacement of [125I]NDP-MSH, compounds tested as trifluoroacetate or hydrochloride salts or free base
T1 construct: purchased Perkin Elmer ES-195-M400UA
Protocol: Assessments of compound binding to human MC1R (hMC1R)) by displacement of an ^125I-labeled NDP-MSH receptor ligand peptide were performed essentially as described in the data sheets produced by Perkin Elmer to accompany their frozen hMC1R membranes (Perkin Elmer catalog number ES-195-M400UA).
[^125I] NDP-MSH: radiolabeled in house and purified by HPLC:
Na ^125I (0.5 mCi, 17.4 Ci/mg) was added to 50 μL sodium phosphate (50 mM, pH 7.4) in an eppendorf tube precoated with IODOGEN. After incubation for 10 mins the phosphate buffer containing the iodine was added to NDP-MSH (10 ul at 1 mg/mL) in a separate eppendorf tube. This was incubated for a further 10 mins. The iodinated NDP-MSH was purified by HPLC on a Zorbax SB 300 column using solvent A: 0.05% TFA and solvent B: 90% acetonitrile 0.045% TFA with a linear gradient, 0-67% B over 60 mins.
Perkin Elmer frozen hMC1 membranes: catalog number ES-195-M400UA, 0.4 mL/vial; 400 microassays/vial, 0.78 mg/mL protein concentration
Vials of frozen membranes were thawed rapidly immediately before use, diluted with binding buffer and vortexed. Resuspended membranes were kept on ice until they were added to the wells of the plate.
Assays were performed in 96 well polypropylene plates. […] This was incubated for 1 hr at 37° C.

T1 sequence (Q01726 whole entry): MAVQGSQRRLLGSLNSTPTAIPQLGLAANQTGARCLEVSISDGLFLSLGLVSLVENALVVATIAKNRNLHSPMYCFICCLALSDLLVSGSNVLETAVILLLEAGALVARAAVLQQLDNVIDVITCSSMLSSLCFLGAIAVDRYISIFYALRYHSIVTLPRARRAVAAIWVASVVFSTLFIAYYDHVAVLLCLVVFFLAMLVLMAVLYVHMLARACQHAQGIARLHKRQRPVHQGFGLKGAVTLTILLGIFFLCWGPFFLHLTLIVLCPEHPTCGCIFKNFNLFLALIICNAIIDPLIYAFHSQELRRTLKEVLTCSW

IC50, < 10 µM:
O=C(/C=C/c1ccc(F)cc1)NC[C@@H]1CCN(CC(c2ccccc2)c2ccccc2)C(=O)[C@H](CCCNC2CCCCC2)N1 [Compound 127, (E)-N-(((3S,5S)-3-(3-(cyclohexylamino)propyl)-1-(2,2-diphenylethyl)-2-oxo-1,4-diazepan-5-yl)methyl)-3-(4-fluorophenyl)acrylamide]
NCCC[C@@H]1N[C@H](CNC(=O)c2ccc(-c3ccc(Cl)cc3)o2)CCN(CC(c2ccccc2)c2ccccc2)C1=O [Compound 128]
NCCC[C@@H]1N[C@H](CNC(=O)c2cc(-c3ccc(Cl)cc3)on2)CCN(CC(c2ccccc2)c2ccccc2)C1=O [Compound 129]
N=C(N)NCCC[C@@H]1N[C@H](CNC(=O)c2ccc3ccccc3c2)CCN(CCC2CCCCC2)C1=O [Compound 130, N-(((3S,5S)-1-(2-cyclohexylethyl)-3-(3-guanidinopropyl)-2-oxo-1,4-diazepan-5-yl)methyl)-2-naphthamide]
N=C(N)NCCC[C@@H]1N[C@H](CNC(=O)c2ccc3ccccc3c2)CCN(CCC2CC3CCC2C3)C1=O (stereo partly drawn) [Compound 131, N-(((3S,5S)-1-(2-(bicyclo[2.2.1]heptan-2-yl)ethyl)-3-(3-guanidinopropyl)-2-oxo-1,4-diazepan-5-yl)methyl)-2-naphthamide]
O=C(/C=C/c1ccc(Cl)cc1)NC[C@@H]1CCN(CC(c2ccccc2)c2ccccc2)C(=O)[C@H](CCCN2CCCCC2)N1 [Compound 132, (E)-3-(4-chlorophenyl)-N-(((3S,5S)-1-(2,2-diphenylethyl)-2-oxo-3-(3-(piperidin-1-yl)propyl)-1,4-diazepan-5-yl)methyl)acrylamide]
NC[C@@H]1N[C@H](CNC(=O)/C=C/c2ccc(Cl)cc2)CCN(CC(c2ccccc2)c2ccccc2)C1=O [Compound 133, (E)-N-(((3S,5S)-3-(aminomethyl)-1-(2,2-diphenylethyl)-2-oxo-1,4-diazepan-5-yl)methyl)-3-(4-chlorophenyl)acrylamide]
O=C(/C=C/c1ccc(Cl)cc1)NC[C@@H]1CCN(CC(c2ccccc2)c2ccccc2)C(=O)[C@H](CN2CCCCC2)N1 [Compound 134, (E)-3-(4-chlorophenyl)-N-(((3S,5S)-1-(2,2-diphenylethyl)-2-oxo-3-(piperidin-1-ylmethyl)-1,4-diazepan-5-yl)methyl)acrylamide]
NCC[C@@H]1N[C@H](CNC(=O)c2ccc(Cl)c(Cl)c2)CCN(CC(c2ccccc2)c2ccccc2)C1=O [Compound 135, N-(((3S,5S)-3-(2-aminoethyl)-1-(2,2-diphenylethyl)-2-oxo-1,4-diazepan-5-yl)methyl)-3,4-dichlorobenzamide]
O=C(NC[C@@H]1CCN(CC(c2ccccc2)c2ccccc2)C(=O)[C@H](CCN2CCCCC2)N1)c1ccc(Cl)c(Cl)c1 [Compound 137, 3,4-dichloro-N-(((3S,5S)-1-(2,2-diphenylethyl)-2-oxo-3-(2-(piperidin-1-yl)ethyl)-1,4-diazepan-5-yl)methyl)benzamide]
N=C(N)NCCC[C@@H]1N[C@H](CNC(=O)c2ccc3ccccc3c2)CCN(CC(Oc2ccccc2)c2ccccc2)C1=O (stereo partly drawn) [Compound 138, N-(((3S,5S)-3-(3-guanidinopropyl)-2-oxo-1-(2-phenoxy-2-phenylethyl)-1,4-diazepan-5-yl)methyl)-2-naphthamide]
CC1CC(C)CC(CN2CC[C@@H](CNC(=O)c3ccc4ccccc4c3)N[C@@H](CCCNC(=N)N)C2=O)C1 (stereo partly drawn) [Compound 139, N-(((3S,5S)-1-((3,5-dimethylcyclohexyl)methyl)-3-(3-guanidinopropyl)-2-oxo-1,4-diazepan-5-yl)methyl)-2-naphthamide]
NCC[C@@H]1N[C@H](CNC(=O)c2ccc(Cl)c(Cl)c2)CCN(Cc2cc(Cl)cc(Cl)c2)C1=O [Compound 140, N-(((3S,5S)-3-(2-aminoethyl)-1-(3,5-dichlorobenzyl)-2-oxo-1,4-diazepan-5-yl)methyl)-3,4-dichlorobenzamide]
NCC[C@@H]1N[C@H](CNC(=O)/C=C/c2ccc(Cl)cc2)CCN(Cc2cc(Cl)cc(Cl)c2)C1=O [Compound 141, (E)-N-(((3S,5S)-3-(2-aminoethyl)-1-(3,5-dichlorobenzyl)-2-oxo-1,4-diazepan-5-yl)methyl)-3-(4-chlorophenyl)acrylamide]
CNC(=O)[C@H](Cc1ccc2ccccc2c1)N1CC[C@H]2CN(Cc3ccc(F)cc3)C(=O)N2[C@@H](CCCNC(=N)N)C1=O [Compound 142, (S)-2-((5S,9aS)-2-(4-fluorobenzyl)-5-(3-guanidinopropyl)-3,6-dioxotetrahydro-1H-imidazo[1,5-d][1,4]diazepin-7(8H,9H,9aH)-yl)-N-methyl-3-(naphthalen-2-yl)propanamide]
CNC(=O)[C@H](Cc1ccc2ccccc2c1)N1CC[C@H](CNCc2ccc(F)cc2)N[C@@H](CCCNC(=N)N)C1=O [Compound 143, (S)-2-((3S,5R)-5-((4-fluorobenzylamino)methyl)-3-(3-guanidinopropyl)-2-oxo-1,4-diazepan-1-yl)-N-methyl-3-(naphthalen-2-yl)propanamide]
NCCC[C@@H]1N[C@H](CNC(=O)c2ccc3ccccc3c2)CCN(CC2(c3ccccc3)CCCCC2)C1=O [Compound 144, N-(((3S,5S)-3-(3-aminopropyl)-2-oxo-1-((1-phenylcyclohexyl)methyl)-1,4-diazepan-5-yl)methyl)-2-naphthamide]
O=C(/C=C/c1ccc(Cl)cc1)NC[C@@H]1CCN(Cc2cc(Cl)cc(Cl)c2)C(=O)[C@H](CCN2CCCCC2)N1 [Compound 145, (E)-3-(4-chlorophenyl)-N-(((3S,5S)-1-(3,5-dichlorobenzyl)-2-oxo-3-(2-(piperidin-1-yl)ethyl)-1,4-diazepan-5-yl)methyl)acrylamide]
CCC(CC)CN1CC[C@@H](CNC(=O)/C=C/c2ccc(Cl)cc2)N[C@@H](CCN)C1=O [Compound 146, (E)-N-(((3S,5S)-3-(2-aminoethyl)-1-(2-ethylbutyl)-2-oxo-1,4-diazepan-5-yl)methyl)-3-(4-chlorophenyl)acrylamide]
N=C(N)NCCC[C@@H]1N[C@H](CNC(=O)c2ccc3ccccc3c2)CCN(CC(C(=O)Nc2ccccc2)c2ccccc2)C1=O (stereo partly drawn) [Compound 147, N-(((3S,5S)-3-(3-guanidinopropyl)-2-oxo-1-(3-oxo-2-phenyl-3-(phenylamino)propyl)-1,4-diazepan-5-yl)methyl)-2-naphthamide]
NC[C@@H]1N[C@H](CNC(=O)c2ccc(Cl)c(Cl)c2)CCN(Cc2cc(Cl)cc(Cl)c2)C1=O [Compound 148, N-(((3S,5S)-3-(aminomethyl)-1-(3,5-dichlorobenzyl)-2-oxo-1,4-diazepan-5-yl)methyl)-3,4-dichlorobenzamide]
NC[C@@H]1N[C@H](CNC(=O)c2ccc3ccccc3c2)CCN(Cc2cc(Cl)cc(Cl)c2)C1=O [Compound 149, N-(((3S,5S)-3-(aminomethyl)-1-(3,5-dichlorobenzyl)-2-oxo-1,4-diazepan-5-yl)methyl)-2-naphthamide]
O=C(NC[C@@H]1CCN(Cc2cc(Cl)cc(Cl)c2)C(=O)[C@H](CN2CCCCC2)N1)c1ccc(Cl)c(Cl)c1 [Compound 151, 3,4-dichloro-N-(((3S,5S)-1-(3,5-dichlorobenzyl)-2-oxo-3-(piperidin-1-ylmethyl)-1,4-diazepan-5-yl)methyl)benzamide]
O=C(/C=C/c1ccc(Cl)cc1)NC[C@@H]1CCN(Cc2cc(Cl)cc(Cl)c2)C(=O)[C@H](CN2CCCCC2)N1 [Compound 152, (E)-3-(4-chlorophenyl)-N-(((3S,5S)-1-(3,5-dichlorobenzyl)-2-oxo-3-(piperidin-1-ylmethyl)-1,4-diazepan-5-yl)methyl)acrylamide]
CCC(CN1CC[C@@H](CNC(=O)/C=C/c2ccc(Cl)cc2)N[C@@H](CCN)C1=O)c1ccccc1 (stereo partly drawn) [Compound 153, (E)-N-(((3S,5S)-3-(2-aminoethyl)-2-oxo-1-(2-phenylbutyl)-1,4-diazepan-5-yl)methyl)-3-(4-chlorophenyl)acrylamide]
O=C(NC[C@@H]1CCN(CC(c2ccccc2)c2ccccc2)C(=O)[C@H](CCN2CCCCC2)N1)c1ccc2cc(Cl)ccc2c1 [Compound 154, 6-chloro-N-(((3S,5S)-1-(2,2-diphenylethyl)-2-oxo-3-(2-(piperidin-1-yl)ethyl)-1,4-diazepan-5-yl)methyl)-2-naphthamide]
CC(C)c1ccc(/C=C/C(=O)NC[C@@H]2CCN(CC(c3ccccc3)c3ccccc3)C(=O)[C@H](CCN3CCCCC3)N2)cc1 [Compound 155, (E)-N-(((3S,5S)-1-(2,2-diphenylethyl)-2-oxo-3-(2-(piperidin-1-yl)ethyl)-1,4-diazepan-5-yl)methyl)-3-(4-isopropylphenyl)acrylamide]
CC(C)c1ccc(/C=C/C(=O)NC[C@@H]2CCN(CC(c3ccccc3)c3ccccc3)C(=O)[C@H](CCN)N2)cc1 [Compound 156, (E)-N-(((3S,5S)-3-(2-aminoethyl)-1-(2,2-diphenylethyl)-2-oxo-1,4-diazepan-5-yl)methyl)-3-(4-isopropylphenyl)acrylamide]

Source: patent US20140128380A1, “METHODS OF MODULATING THE ACTIVITY OF THE MC1 RECEPTOR AND TREATMENT OF CONDITIONS RELATED TO THIS RECEPTOR” (Mimetica Pty Ltd, priority 2009, published 2014)
